“Also recorded” adds a separate entry of the source.
Legend:
[1] = Quantitative determination of BLZ945 in blood and brain (LC-MS-MS); format: in vivo; details: mice, p.o., FIG. 11
Protocol: Sample preparation and analysis was based on a modified protein precipitation procedure followed by liquid chromatographic separation coupled with mass spectrometry for detection. Cerebella were homogenized in a gentleMACS™ Dissociator (Milteniy Biotec, #130-093-235) by adding 20% CH3OH to a final concentration of 0.20 g/mL. Blood-EDTA samples were directly used for further preparation. Calibration, quality control, and recovery control samples were prepared by spiking blank blood and blank brain homogenate with known quantities of BLZ945 (between 0.02 and 62.5 μg/mL). For analyte determination, Labetalol hydrochloride (Sigma-Aldrich, # L1011) was used as generic internal standard (IS). […]
LC-MS-MS analysis: For quantitative analysis, a 1.5 μl aliquot of each sample, including calibration, quality control, and recovery control samples were injected with a cooled Waters™ Acquity Urbinary sample manager and HPLC system. […] Quantification was based on the compound/IS ratio of the extracted ion chromatograms of the selected mass transitions 399 m/z→242 m/z for BLZ945 and 329 m/z→162 m/z for Labetalol (IS). The unknown sample concentration was calculated using external calibration curves. The Lower Limit Of Quantification (LLOQ) of the method was set to 20 ng/mL for blood, and 100 ng/mL for brain samples, and the recovery from the matrix was 95±2%. […]

[2] = tested on: Cuprizone-Induced Demyelination in Mice; assay: Cuprizone-induced demyelination in mice, brain histology / immunohistochemistry (169 mg/kg); format: in vivo, Mice (C57BL/6J); details: 169 mg/kg p.o. qd, 2 weeks after 5 weeks 0.2% cuprizone
Excerpt: Studies described below were approved by the Swiss Cantonal Veterinary Authority of Basel City, Switzerland, under the license number 2711. Mice (C57BL/6J) were commercially purchased from Charles River Laboratories, Germany or obtained from Novartis Pharma AG breeding colonies (8-9 weeks old, females). All the animals were allowed to adapt for 7 days prior the start of the experiment and housed in IVC racks (max. 4 mice/XJ Type cage). The animals were given access to food and water ad libitum. Animals were treated with cuprizone for 5 weeks. Cuprizone (Bis(cyclohexanone)oxaldihydrazone, Sigma-Aldrich) was mixed into rodent food pellets (0.2% w/w) by Provimi Kliba AG, Switzerland. Therapeutic treatment of animals after cuprizone was performed for 2 weeks on normal food with 169 mg/kg of BLZ945, qd, p.o. 10 ml/kg. BLZ945 was prepared in vehicle consisting of 0.5% methylcellulose in water and 0.1% Tween-80. Before killing 3 h after last BLZ945 dosing animals were perfused transcardially by phosphate-buffered saline (PBS), brains isolated and fixed in 4% paraformaldehyde (PFA) for 48 h at 4° C. After fixation brains were processed for paraffin embedding by dehydration through increasing ethanol series. Automated immunohistochemistry of paraffin sections was performed on 3 μm paraffin sections mounted on SuperFrost+ slides and automatically immunostained using the Discovery XT technology (Ventana/Roche Diagnostics). Briefly, sections were deparaffinized, rehydrated, subjected to antigen retrieval by heating with CC1 cell conditioning buffer, incubated for 1-3 hours at room temperature with primary antibody diluted in antibody diluent, incubated with the respective biotinylated secondary antibody diluted in antibody dilution, reacted with DABMab kit and counterstained with Hematoxylin II and Bluing Agent reagent (Ventana/Roche Diagnostics). Slides were washed with soap in hot tap water and rinsed under cold running tap water to remove the soap, then dehydrated and embedded with Pertex. Manual immunofluorescence staining of paraffin sections was performed on 3 μm paraffin sections. They were de-waxed and subjected to antigen retrieval (exception: GST-π) by microwaving for 15-20 minutes at 98° C. in 0.1 M citrate buffer pH 6.0 (quartett 400300692), the jar with slides were cooled to room temperature for 20-25 min and rinsed in 1×TBS (cell signaling 12498S) twice for 3 min. Endogenous peroxidase was quenched with Perox Block (Dako S2023) for 10 min, sections then washed with 1×TBS twice for 3 min and blocking with 10% normal goat serum (Dako X0907) in 1×TBS for 20 min performed. Sections were then incubated without rinsing with primary antibody for 60 min (MBP) or overnight (GST-pi, MOG) at room temperature. Sections were then washed in 1×TBS twice for 3 min and then incubated with secondary antibody for 30 min at room temperature. Sections were then washed with 1×TBS twice for 3 min and incubated with Vectastain ABC Elite Kit (Vector PK6100) for 30 min at room temperature, washed with 1×TBS twice for 3 min, incubated with DAB solution (Dako K3468) for 1-5 min. Sections were finally washed with distilled water twice for 2 min, counterstained with Hematoxylin (Dako S2020) for 3 min, again washed with running tap water for 5 min, dehydrated and embedded in Pertex. […]

[3] = compared to control (normal food)

CNC(=O)c1cc(Oc2ccc3nc(N[C@@H]4CCCC[C@H]4O)sc3c2)ccn1 [BLZ945, 4-(2-((1R,2R)-2-hydroxycyclohexylamino)benzothiazol-6-yloxy)-N-methylpicolinamide]
Kp at 3 h ([1]; C57BL/6J, mouse, brain (cerebellum homogenate) / whole blood (EDTA), po, read-out: brain/blood ratio): 0.3 to 0.6 | Blood and brain BLZ945 levels [1]: dose-dependent | Iba1+ microglia number compared to control, cortex [2, 3]: lower number of Iba1+ microglia | Iba1+ microglia number compared to control, striatum [2, 3]: lower number of Iba1+ microglia | GFAP-positive astrocytes (stained area), all brain areas ([2]; compared to vehicle): enhances astrocytes; also recorded: even further increases astrocyte numbers; also recorded: substantially higher in cortex and striatum than it is in the corpus callosum | Iba1-positive microglia numbers, all brain areas analyzed (cortex, striatum, corpus callosum) ([2]; compared to vehicle treated animals): reduces microglia numbers; also recorded: significantly reducing this increase compared to vehicle treated animals | GST-π positive mature oligodendrocytes (number of positive cells), cortex ([2]; immunohistochemistry): increases oligodendrocyte numbers; also recorded: did not reach control levels; also recorded: significantly increased after BLZ945 treatment compared to vehicle control | GST-π positive mature oligodendrocytes (number of positive cells), striatum ([2]; immunohistochemistry): increases oligodendrocyte numbers; also recorded: significantly increased after BLZ945 treatment compared to vehicle control; also recorded: did not reach control levels | Myelin basic protein (MBP) stained area, cortex ([2]; immunohistochemistry): enhances remyelination; also recorded: did not reach control levels; also recorded: significantly increased after BLZ945 treatment compared to vehicle control | Myelin basic protein (MBP) stained area, striatum ([2]; immunohistochemistry): enhances remyelination; also recorded: did not reach control levels; also recorded: significantly increased after BLZ945 treatment compared to vehicle control | GST-π positive oligodendrocytes, corpus callosum ([2]; vs cuprizone vehicle): not corpus callosum; also recorded: no difference | Luxol fast blue (LFB) optical density, corpus callosum ([2]; vs cuprizone vehicle): no difference | Myelin oligodendrocyte glycoprotein (MOG) optical density, corpus callosum ([2]; vs cuprizone vehicle): not corpus callosum; also recorded: no difference
